{"source": "patent US20220072009A1", "about": "“SHORT-ACTING SELECTIVE GLUCOCORTICOID RECEPTOR MODULATORS” (PANDA CONSULTING LLC, priority 2018, published 2022)", "key": {"[1]": {"tested_on": "male CD-1 mice", "assay": "elevated plus maze test (EPM), mouse model of stress-induced anxiety", "format": "in vivo", "method": "Formula III (also referred to as PND-001) as a representative compound out of the class of SASGRMs was tested in a mouse model of stress-induced anxiety, the elevated plus maze test (EPM) (Experiment 1). The EPM relies on the inherent conflict between a rodent's tendency to explore a novel environment on one hand, and the stress of such exploration, resulting in avoidance of the aversive properties of the brightly lit open arms. Compounds that reduce anxiety specifically increase the frequency of entries into the open arms and time spent in the open arms.\nFour to five week-old male CD-1 mice were group-housed (6 or 7 mice per cage) and maintained in a room with controlled temperature (21-22° C.) and a reversed light-dark cycle (12 h/12 h; lights on: 17:30-05:30; lights off: 05:30-17:30) with food and water available ad libitum.\nFormula III and the vehicle (5% Dimethyl Sulfoxide (DMSO) and 95% Polyethylene Glycol 400 (PEG400)) were s.c. administrated 24 hours and 6 hours prior the EPM trial.\nDiazepam was p.o. administrated 60 min prior the EPM trial as a positive control.\nFormula III was tested in doses of 10, 30 and 100 mg/kg. Diazepam was p.o administrated 60 min prior the EPM trial and tested in a dose of 1 mg/kg. (see Table 1).\nThe mice were randomly assigned to one of the different experimental groups. Each animal was identified by its group name, cage number, series (day) of experiment, and a number (from 1 to 12) written with permanent ink on its tail.\nThe apparatus was a PVC maze covered with Plexiglas and subdivided into four equal exploratory arms (21×8 cm), which are all interconnected by a small platform (8×8 cm). The apparatus was placed 59 cm above the floor. Two arms are opened and two others are closed with wall (high: 21 cm).\nAfter compound administration, mouse was placed on the platform opposite a closed arm. The number of entries and the time spent in each arm were recorded during a 5 min period. The animal was considered as entered in an arm when it places its four paws in the arm.\nAnalysis of variance (ANOVA) was performed on the result data. Fisher's PLSD was used for pairwise comparisons and p value ≤0.05 were considered significant.\nIn the next experiment in the Elevated Plus Maze Test (Experiment 2; conducted as described under the same experimental procedures and analysis as described for Experiment 1), the efficacy of Formula III (also referred to as PND001) at lower doses was studied. […] Compounds or vehicle (5% Dimethyl Sulfoxide (DMSO) and 95% Polyethylene Glycol 400 (PEG400)) were administrated s.c. 24 hours and 6 hours prior the EPM trial (Table 3).\nFormula III (PND 001) was tested in doses of 1, 3 and 10 mg/kg. Formula IV (PND 002) was tested in doses of 30 mg/kg. Diazepam was p.o administrated 60 min prior the EPM trial as positive control and tested in a dose of 1 mg/kg.\nIn a third experiment in the Elevated Plus Maze Test (Experiment 3), conducted as described under the same experimental procedures and analysis as described for Experiment 1, the effect of the dosing route and regimen was investigated. Formula III (also referred to as PND001) and the vehicle (5% Dimethyl Sulfoxide (DMSO) and 95% Polyethylene Glycol 400 (PEG400)) were administrated by gavage (p.o.). Diazepam was i.p. administrated 30 min prior the EPM trial as positive control.\nPND 001 was tested in doses of 3 mg/kg which had the highest efficacy in Experiment 2, and administrated either twice at 6 h and 1 h before the EPM trial, or given only once at 1 h before the trial. Diazepam was i.p. administrated 30 min prior the EPM trial and tested in a dose of 1 mg/kg. (see Table 5)."}, "[2]": {"tested_on": "corticosterone", "conditions": "mouse, in vivo, po, 30 mg/kg"}, "[3]": {"tested_on": "MDCK cell monolayers", "conditions": "pH 7.4", "experimental": "BBB penetration is assessed in vitro using confluent MDCK cell monolayers and dosing of 504 of test compounds on apical and basolateral side of the monolayer at pH 7.4 for 90 min. The apparent permeability in both directions, and the efflux ratio is determined after subjecting samples to LC-MS/MS analysis."}, "[4]": {"conditions": "reported, cited from earlier work"}, "[5]": {"tested_on": "rat plasma proteins", "conditions": "reported; cited from earlier work"}, "[6]": {"tested_on": "human plasma proteins", "conditions": "reported; cited from earlier work"}, "[7]": {"tested_on": "rat hepatocytes", "conditions": "in vitro, reported; cited from earlier work"}, "[8]": {"conditions": "Experiment 2, 30 mg/kg sc 24 h and 6 h"}, "[9]": {"conditions": "Experiment 2, 30 mg/kg, 24 + 6 h, sc"}, "[10]": {"conditions": "Experiment 1, 1 mg/kg po 60 min"}, "[11]": {"conditions": "Experiment 2, 1 mg/kg po 60 min"}, "[12]": {"conditions": "Experiment 3, 1 mg/kg ip 30 min"}, "[13]": {"conditions": "Experiment 3, 1 mg/kg, 30 min, ip"}}}
{"smiles": "CCCCCCNC(=O)[C@@]1(O)[C@H](C)CC2[C@@H]3CCC4=CC(=O)C=C[C@]4(C)[C@@]3(F)[C@@H](O)C[C@@]21C", "note": "(some centres unmarked) [Formula IV]", "values": [{"measurement": "increase in number of entries into the open arms compared to vehicle treated mice", "setting": "[1]; [8]", "result": 77, "unit": "%"}, {"measurement": "increase in time spent into the open arms compared to vehicle treated mice", "setting": "[1]; [8]", "result": 90, "unit": "%"}, {"measurement": "Number of entries in the open arm, Mean", "setting": "[1]; [9]", "result": 10.1, "unit": "n"}, {"measurement": "Time spent in the open arm, Mean", "setting": "[1]; [9]", "result": 64.1, "unit": "s"}, {"measurement": "corticosterone increase", "setting": "[2]", "result": "not found to be significantly increased"}, {"measurement": "BBB penetration potential", "setting": "[3]", "result": "moderate to high"}, {"measurement": "conversion to unidentified metabolites in rat liver microsomes (time)", "setting": "[4]", "result": "≤ 30", "unit": "min"}]}
{"smiles": "C[C@]12CCC3C(C[C@H]4OC[C@@]35CCC(=O)C=C45)C1CC[C@@H]2C(=O)CO", "note": "(some centres unmarked) [Formula II]", "values": [{"measurement": "corticosterone increase", "setting": "[2]", "result": "not found to be significantly increased"}, {"measurement": "BBB penetration potential", "setting": "[3]", "result": "moderate to high"}]}
{"smiles": "C[C@]12C=CC(=O)C=C1CCC1C2OC[C@@]2(C)C1CC[C@]2(O)C(=O)CO", "note": "(some centres unmarked) [Formula V]", "values": [{"measurement": "corticosterone increase", "setting": "[2]", "result": "not found to be significantly increased"}, {"measurement": "BBB penetration potential", "setting": "[3]", "result": "moderate to high"}]}
{"smiles": "CC#C[C@]1(O)CC[C@H]2[C@@H]3CCC4=CC(=O)CCC4=C3[C@@H](c3ccc(N(C)C)cc3)C[C@@]21C", "note": "[mifepristone]", "values": [{"measurement": "plasma protein binding, rat serum", "setting": "[5]", "result": "over 95%"}, {"measurement": "plasma protein binding, human serum", "setting": "[6]", "result": "over 95%"}]}
{"smiles": "CC#C[C@]1(O)CCC2C3CCC4=CC(=O)CC[C@]4(Cc4ccc(C)cc4)C3=CC[C@@]21C", "note": "(stereo partly drawn) [Formula I, (10R,13S,17S)-17-hydroxy-13-methyl-10-[(4-methylphenyl)methyl]-17-prop-1-ynyl-2,6,7,8,12,14,15,16-octahydro-1H-cyclopenta[a]phenanthrene-3-one]", "values": [{"measurement": "corticosterone increase", "setting": "[2]", "result": "not found to be significantly increased"}, {"measurement": "BBB penetration potential", "setting": "[3]", "result": "moderate to high"}, {"measurement": "half life in rat hepatocytes", "setting": "[7]", "result": "less than 0.2 h"}, {"measurement": "half life in rat liver microsomes", "setting": "[4]; in vitro", "result": 19.8, "unit": "min"}]}
{"smiles": "CN1C(=O)CN=C(c2ccccc2)c2cc(Cl)ccc21", "note": "[Diazepam, reference compound]", "values": [{"measurement": "increase in number of entries to the open arms compared to vehicle treated mice", "setting": "[1]; [10]", "result": 233, "unit": "%"}, {"measurement": "increase in time spent in the open arms compared to vehicle treated mice", "setting": "[1]; [10]", "result": 327, "unit": "%"}, {"measurement": "Number of entries in the open arm, Mean", "setting": "[1]; Experiment 1, 1 mg/kg, 1 h, po", "result": 10.0, "unit": "n"}, {"measurement": "Time spent in the open arm, Mean", "setting": "[1]; Experiment 1, 1 mg/kg, 1 h, po", "result": 59.6, "unit": "s"}, {"measurement": "increase in number of entries into the open arms compared to vehicle treated mice", "setting": "[1]; [11]", "result": 146, "unit": "%"}, {"measurement": "increase in time spent into the open arms compared to vehicle treated mice", "setting": "[1]; [11]", "result": 151, "unit": "%"}, {"measurement": "Number of entries in the open arm, Mean", "setting": "[1]; Experiment 2, 1 mg/kg, 1 h, po", "result": 14.0, "unit": "n"}, {"measurement": "Time spent in the open arm, Mean", "setting": "[1]; Experiment 2, 1 mg/kg, 1 h, po", "result": 84.6, "unit": "s"}, {"measurement": "increase in number of entries into the open arms compared to vehicle treated mice", "setting": "[1]; [12]", "result": 400, "unit": "%"}, {"measurement": "increase in time spent into the open arms compared to vehicle treated mice", "setting": "[1]; [12]", "result": 270, "unit": "%"}, {"measurement": "Number of entries in the open arm, Mean", "setting": "[1]; [13]", "result": 23.2, "unit": "n"}, {"measurement": "Time spent in the open arm, Mean", "setting": "[1]; [13]", "result": 116.9, "unit": "s"}]}
